# ChEMBL document CHEMBL6120970, “Discovery and Functional Characterization of a Potent, Selective, and Metabolically Stable PROTAC of the Protein Kinases DYRK1A and DYRK1B” (J Med Chem, 2024)
# Active and inactive are the calls of the source. The calls are words filed in the database; no cut-off is given here.
# Experiments:
# [1] = Oral availability in mouse at 10 mg/kg administered as single dose; type: ADME, organism-based; settings: in vivo
# [2] = AUC infinity in mouse at 10 mg/kg, po administered as single dose; type: ADME, organism-based; settings: in vivo
# [3] = AUClast in mouse at 1 mg/kg, iv administered as single dose; type: ADME, organism-based; settings: in vivo
# [4] = molecular target: T1, Protein cereblon/Dual specificity tyrosine-phosphorylation-regulated kinase 1A (Homo sapiens, UniProt Q13627+Q96SW2); experiment: PROTAC activity at CRBN/DYRK1A in HEK293 cells assessed as induction of degradation of DYRK1A at 100 nM measured within 8 hrs by Western blot analysis; type: cell-based
# [5] = molecular target: T1, Protein cereblon/Dual specificity tyrosine-phosphorylation-regulated kinase 1A; experiment: PROTAC activity at CRBN/DYRK1A in HEK293 cells expressing GFP-SF3B1 assessed as inhibition of SF3B1 phosphorylation at 10 nM measured for 48 hrs by Western blot analysis; type: cell-based
# [6] = molecular target: T1, Protein cereblon/Dual specificity tyrosine-phosphorylation-regulated kinase 1A; experiment: PROTAC activity at CRBN/DYRK1A in HEK293 cells assessed as induction of degradation of DYRK1A at 100 nM pretreated with bortezomib followed by compound addition and incubated for 8 hrs; type: cell-based
# [7] = molecular target: T2, Protein cereblon/Dual specificity tyrosine-phosphorylation-regulated kinase 1B (Homo sapiens) (UniProt Q9Y463+Q96SW2); experiment: PROTAC activity at CRBN/DYRK1B in Flp-In-T-REx-293 cells overexpressing GFP-DYRK1B assessed as maximal reduction in GFP fluorescence at 1 uM measured upto 6 hrs by fluorescence based phase contrast microscopy analysis relative to control; type: cell-based
# [8] = Permeability of the compound by PAMPA method; type: ADME; settings: read-out: permeability
# [9] = Cmax in mouse at 10 mg/kg, ip administered as single dose; type: ADME, organism-based; settings: in vivo
# [10] = MRT in mouse at 1 mg/kg, iv administered as single dose; type: ADME, organism-based; settings: in vivo
# [11] = molecular target: T1, Protein cereblon/Dual specificity tyrosine-phosphorylation-regulated kinase 1A; experiment: PROTAC activity at CRBN/DYRK1A in HEK293 cells assessed as induction of degradation of DYRK1A at 100 nM incubated for 24 hrs; type: cell-based
# [12] = AUC last in mouse at 10 mg/kg, ip administered as single dose; type: ADME, organism-based; settings: in vivo
# [13] = Metabolic stability in mouse liver microsomes assessed as half life; type: ADME, Microsome
# [14] = test system: HEK293; experiment: Effect on DCAF7 expression in HEK293 cells at 1 to 10000 nM; type: functional, cell-based; settings: Homo sapiens, dose 1-10000 nM
# [15] = molecular target: T2, Protein cereblon/Dual specificity tyrosine-phosphorylation-regulated kinase 1B (Homo sapiens); experiment: PROTAC activity at CRBN/DYRK1B in HEK293 cells assessed as induction of degradation of DYRK1B at 100 nM pretreated with bortezomib followed by compound addition and incubated for 8 hrs; type: cell-based
# [16] = molecular target: T1, Protein cereblon/Dual specificity tyrosine-phosphorylation-regulated kinase 1A; experiment: PROTAC activity at CRBN/DYRK1A in HEK293 cells assessed as induction of degradation of DYRK1A at 100 nM pretreated with MLN4924 followed by compound addition and incubated for 8 hrs; type: cell-based
# [17] = Half life in mouse blood; type: ADME, tissue-based
# [18] = molecular target: T1, Protein cereblon/Dual specificity tyrosine-phosphorylation-regulated kinase 1A; experiment: PROTAC activity at CRBN/DYRK1A in HEK293 cells assessed as induction of degradation of DYRK1A at 1 to 10000 nM incubated for 24 hrs in presence of CaNDY; type: cell-based; settings: dose 1-10000 nM
# [19] = Solubility of the compound in PBS buffer; type: physicochemical
# [20] = molecular target: T1, Protein cereblon/Dual specificity tyrosine-phosphorylation-regulated kinase 1A; experiment: PROTAC activity at CRBN/HibiT-tagged DYRK1A in Flp-In-T-REx-293 cells assessed as induction of degradation of DYRK1A by measuring maximum efficacy at 1 uM measured after 24 hrs by NanoBiT luciferase assay relative to control; type: cell-based
# [21] = MRT in mouse at 10 mg/kg, po administered as single dose; type: ADME, organism-based; settings: in vivo
# [22] = Half life in mouse at 10 mg/kg, po administered as single dose; type: ADME, organism-based; settings: in vivo
# [23] = molecular target: T2, Protein cereblon/Dual specificity tyrosine-phosphorylation-regulated kinase 1B (Homo sapiens); experiment: PROTAC activity at CRBN/DYRK1B in SH-SY5Y cells assessed as induction of degradation of DYRK1B at 100 nM incubated for 24 hrs; type: cell-based
# [24] = molecular target: T1, Protein cereblon/Dual specificity tyrosine-phosphorylation-regulated kinase 1A; experiment: PROTAC activity at CRBN/DYRK1A in HEK293 cells assessed as induction of degradation of DYRK1A incubated for 24 hrs; type: cell-based
# [25] = test system: SH-SY5Y; experiment: Cytotoxicity against human SH-SY5Y cells assessed as reduction in cell viability at 100 nM measured upto 96 hrs in presence of cisplatin by real-time cell analysis; type: functional, cell-based
# [26] = MRT in mouse at 10 mg/kg, ip administered as single dose; type: ADME, organism-based; settings: in vivo
# [27] = molecular target: T2, Protein cereblon/Dual specificity tyrosine-phosphorylation-regulated kinase 1B (Homo sapiens); experiment: PROTAC activity at CRBN/DYRK1B in HEK293 cells assessed as induction of degradation of DYRK1B at 100 nM pretreated with CB-5083 followed by compound addition and incubated for 8 hrs; type: cell-based
# [28] = Solubility of the compound in FeSSIF buffer; type: physicochemical
# [29] = molecular target: T1, Protein cereblon/Dual specificity tyrosine-phosphorylation-regulated kinase 1A; experiment: PROTAC activity at CRBN/DYRK1A in HEK293 cells assessed as induction of degradation of DYRK1A at 1 to 10000 nM incubated for 24 hrs in presence of 4-(3-(2-fluoro-4-(4-methylpiperazin-1-yl)phenyl)-2-methyl-3H-imidazo[4,5-b]pyridin-5-yl)pyridin-2-amine; type: cell-based; settings: dose 1-10000 nM
# [30] = Permeability of the compound in human Caco-2 cells across basolateral side to apical side; type: ADME, cell-based; settings: read-out: permeability
# [31] = Volume of distribution at steady state in mouse at 1 mg/kg, iv administered as single dose; type: ADME, organism-based; settings: in vivo, read-out: Vdss
# [32] = test system: SH-SY5Y; experiment: Cytotoxicity against human SH-SY5Y cells assessed as reduction in cell viability at 100 nM measured upto 96 hrs by real-time cell analysis; type: functional, cell-based
# [33] = Solubility of the compound in FaSSIF buffer; type: physicochemical
# [34] = Metabolic stability in mouse liver microsomes assessed as intrinsic clearance; type: ADME, Microsome; settings: read-out: CLH
# [35] = molecular target: T1, Protein cereblon/Dual specificity tyrosine-phosphorylation-regulated kinase 1A; experiment: PROTAC activity at CRBN/DYRK1A in Flp-In-T-REx-293 cells overexpressing GFP-DYRK1A assessed as initial rate of degradation at 1 uM measured upto 6 hrs by fluorescence based phase contrast microscopy analysis; type: cell-based
# [36] = molecular target: T2, Protein cereblon/Dual specificity tyrosine-phosphorylation-regulated kinase 1B (Homo sapiens); experiment: PROTAC activity at CRBN/DYRK1B in HEK293 cells assessed as induction of degradation of DYRK1B at 100 nM incubated for 24 hrs; type: cell-based
# [37] = molecular target: T1, Protein cereblon/Dual specificity tyrosine-phosphorylation-regulated kinase 1A; experiment: PROTAC activity at CRBN/DYRK1A in human HeLa cells assessed as induction of degradation of DYRK1A at 100 nM incubated for 8 hrs; type: cell-based
# [38] = molecular target: T1, Protein cereblon/Dual specificity tyrosine-phosphorylation-regulated kinase 1A; experiment: PROTAC activity at CRBN/HibiT-tagged DYRK1A in HEK293 cells assessed as induction of degradation of DYRK1A at 1 uM measured after 24 hrs by Western blot analysis; type: cell-based
# [39] = molecular target: T1, Protein cereblon/Dual specificity tyrosine-phosphorylation-regulated kinase 1A; experiment: Competitive binding affinity to CRBN/DYRK1A (unknown origin) assessed as residence time; type: protein assay
# [40] = AUC infinity in mouse at 10 mg/kg, ip administered as single dose; type: ADME, organism-based; settings: in vivo
# [41] = Cmax in mouse at 10 mg/kg, po administered as single dose; type: ADME, organism-based; settings: in vivo
# [42] = molecular target: T1, Protein cereblon/Dual specificity tyrosine-phosphorylation-regulated kinase 1A; experiment: PROTAC activity at CRBN/DYRK1A in human SH-SY5Y cells assessed as induction of degradation of DYRK1A at 100 nM incubated for 24 hrs; type: cell-based
structure (smiles),measurement,setting,value
Cc1nc2ccc(-c3ccnc(N)c3)nc2n1-c1ccc(N2CCN(CC#Cc3ccc(N4CCC(C(=O)N5CCC(n6cc(CNc7cccc8c7C(=O)N(C7CCC(=O)NC7=O)C8=O)cn6)CC5)CC4)nc3)CC2)c(F)c1 (configuration not stated),bioavailability,[1],0.25%
same,AUC(0-inf),[2],64 ng·h/mL
same,AUC(0-t),[3],2460 ng·h/mL
same,Activity,[4],Active
same,Activity,[5],Active
same,Activity,[6],inactive
same,Emax,[7],86%
same,Papp,[8],< 0.005 ×10⁻⁶ cm/s
same,Cmax,[9],8130 ng/mL
same,MRT,[10],1.4 h
same,Activity,[11],Active
same,AUC(0-t),[12],26300 ng·h/mL
same,half-life,[13],7.38 h
same,Activity,[14],inactive
same,Activity,[15],inactive
same,Activity,[16],inactive
same,half-life,[17],15.2 h
same,Activity,[18],inactive
same,solubility,[19],< 0.009 µM
same,Emax,[20],84%
same,MRT,[21],2.51 h
same,half-life,[22],2.11 h
same,Activity,[23],Active
same,DC50,[24],12.3 nM
same,Activity,[25],Active; Compound Showed Moderate Toxicity
same,MRT,[26],5.77 h
same,Activity,[27],inactive
same,solubility,[28],2.09 µM
same,Activity,[29],inactive
same,Papp B→A,[30],< 0.243 ×10⁻⁶ cm/s
same,Vd,[31],0.614 L/kg
same,Activity,[32],Active
same,solubility,[33],0.16 µM
same,CLint scaled,[34],3.1 mL/min/kg
same,Activity,[35],0.74 h⁻¹
same,Activity,[36],Active
same,Activity,[37],inactive
same,Activity,[38],Active
same,TIME,[39],0.383 h
same,AUC(0-inf),[40],27100 ng·h/mL
same,Cmax,[41],18.5 ng/mL
same,Activity,[42],Active
